Like-named read-outs stand apart in the source and are kept apart here.
Legend:
Assay in all cases: Glasshouse assay for herbicidal activity (pre- and post-emergence), percentage phytotoxicity
Type in all cases: in vivo
Avena fatua (AVEFA) = conditions: Avena fatua
How it was run: (§1)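 Percent injury was estimated by eye on a scale where 0% means no damage and 100% complete damage. Ratings came 15 DAA post-emergence and 20 DAA pre-emergence, with plants held under 16 h light and 65% humidity at 24/18 °C or 20/16 °C day/night.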

[1] = system: Alopecurus myosuroides (ALOMY); conditions: Alopecurus myosuroides
How it was run: as §1

Lolium perenne (LOLPE) = conditions: Lolium perenne
How it was run: as §1

[2] = system: Echinochloa crus-galli (ECHCG); conditions: Echinochloa crus-galli
How it was run: as §1

[3] = post-emergence, 360 h, Rate 250 g/ha, post-emergence, assessed visually 15 DAA, 100%=total damage, 0%=no damage, read-out: Post-emergence herbicidal activity (percentage phytotoxicity) AVEFA POST
[4] = pre-emergence, 480 h, Rate 250 g/ha, pre-emergence, assessed visually 20 DAA, 100%=total damage, 0%=no damage, read-out: Pre-emergence herbicidal activity (percentage phytotoxicity) AVEFA PRE
[5] = post-emergence, 360 h, Rate 250 g/ha, post-emergence, assessed visually 15 DAA, 100%=total damage, 0%=no damage, read-out: Post-emergence herbicidal activity (percentage phytotoxicity) ALOMY POST
[6] = pre-emergence, 480 h, Rate 250 g/ha, pre-emergence, assessed visually 20 DAA, 100%=total damage, 0%=no damage, read-out: Pre-emergence herbicidal activity (percentage phytotoxicity) ALOMY PRE
[7] = post-emergence, 360 h, Rate 250 g/ha, post-emergence, assessed visually 15 DAA, 100%=total damage, 0%=no damage, read-out: Post-emergence herbicidal activity (percentage phytotoxicity) LOLPE POST
[8] = pre-emergence, 480 h, Rate 250 g/ha, pre-emergence, assessed visually 20 DAA, 100%=total damage, 0%=no damage, read-out: Pre-emergence herbicidal activity (percentage phytotoxicity) LOLPE PRE
[9] = post-emergence, 360 h, Rate 250 g/ha, post-emergence, assessed visually 15 DAA, 100%=total damage, 0%=no damage, read-out: Post-emergence herbicidal activity (percentage phytotoxicity) ECHCG POST
[10] = pre-emergence, 480 h, Rate 250 g/ha, pre-emergence, assessed visually 20 DAA, 100%=total damage, 0%=no damage, read-out: Pre-emergence herbicidal activity (percentage phytotoxicity) ECHCG PRE
[11] = post-emergence, 360 h, Rate 250 g/ha, post-emergence, visual assessment 15 DAA, 100%=total damage, 0%=no damage, read-out: Post-emergence herbicidal activity (percentage phytotoxicity) AVEFA POST
[12] = pre-emergence, 480 h, Rate 250 g/ha, pre-emergence, visual assessment 20 DAA, 100%=total damage, 0%=no damage, read-out: Pre-emergence herbicidal activity (percentage phytotoxicity) AVEFA PRE
[13] = post-emergence, 360 h, Rate 250 g/ha, post-emergence, visual assessment 15 DAA, 100%=total damage, 0%=no damage, read-out: Post-emergence herbicidal activity (percentage phytotoxicity) ALOMY POST
[14] = pre-emergence, 480 h, Rate 250 g/ha, pre-emergence, visual assessment 20 DAA, 100%=total damage, 0%=no damage, read-out: Pre-emergence herbicidal activity (percentage phytotoxicity) ALOMY PRE
[15] = post-emergence, 360 h, Rate 250 g/ha, post-emergence, visual assessment 15 DAA, 100%=total damage, 0%=no damage, read-out: Post-emergence herbicidal activity (percentage phytotoxicity) LOLPE POST
[16] = pre-emergence, 480 h, Rate 250 g/ha, pre-emergence, visual assessment 20 DAA, 100%=total damage, 0%=no damage, read-out: Pre-emergence herbicidal activity (percentage phytotoxicity) LOLPE PRE
[17] = post-emergence, 360 h, Rate 250 g/ha, post-emergence, visual assessment 15 DAA, 100%=total damage, 0%=no damage, read-out: Post-emergence herbicidal activity (percentage phytotoxicity) ECHCG POST
[18] = pre-emergence, 480 h, Rate 250 g/ha, pre-emergence, visual assessment 20 DAA, 100%=total damage, 0%=no damage, read-out: Pre-emergence herbicidal activity (percentage phytotoxicity) ECHCG PRE

Compound	pest or weed control at 250 g/ha (Avena fatua (AVEFA); [3]) [%]	pest or weed control at 250 g/ha (Avena fatua (AVEFA); [4]) [%]	pest or weed control at 250 g/ha [1, 5] [%]	pest or weed control at 250 g/ha [1, 6] [%]	pest or weed control at 250 g/ha (Lolium perenne (LOLPE); [7]) [%]	pest or weed control at 250 g/ha (Lolium perenne (LOLPE); [8]) [%]	pest or weed control at 250 g/ha [2, 9] [%]	pest or weed control at 250 g/ha [2, 10] [%]	pest or weed control at 250 g/ha (Avena fatua (AVEFA); [11]) [%]	pest or weed control at 250 g/ha (Avena fatua (AVEFA); [12]) [%]	pest or weed control at 250 g/ha [1, 13] [%]	pest or weed control at 250 g/ha [1, 14] [%]	pest or weed control at 250 g/ha (Lolium perenne (LOLPE); [15]) [%]	pest or weed control at 250 g/ha (Lolium perenne (LOLPE); [16]) [%]	pest or weed control at 250 g/ha [2, 17] [%]	pest or weed control at 250 g/ha [2, 18] [%]	other results
C#Cc1cc(C)c(C2C(=O)CC(CC(=O)NC(C)C)C2=O)c(C)c1 (stereo not drawn) [Compound A42]	100	100	100	100	90	100	80	100	–	–	–	–	–	–	–	–	–
C=C(C)CNC(=O)CC1CC(=O)C(c2c(C)cc(-c3ccc(Cl)cn3)cc2C)C1=O (stereo not drawn) [Compound B361]	–	–	–	–	–	–	–	–	100	100	100	90	90	90	100	100	–
C/C=C/c1cc(C)c(C2C(=O)CC(CC(=O)NC(C)(C)C)C2=O)c(C)c1 (stereo not drawn) [Compound B173]	–	–	–	–	–	–	–	–	–	–	–	–	–	–	–	–	pest or weed control at 250 g/ha (Avena fatua (AVEFA); post-emergence, 360 h, POST-emergence, rate 250 g/ha, visual score 15 DAA (100%=total damage, 0%=no damage), read-out: Post-emergence herbicidal activity (percentage phytotoxicity) AVEFA POST): 80%; pest or weed control at 250 g/ha (Avena fatua (AVEFA); pre-emergence, 480 h, PRE-emergence, rate 250 g/ha, visual score 20 DAA (100%=total damage, 0%=no damage), read-out: Pre-emergence herbicidal activity (percentage phytotoxicity) AVEFA PRE): 60%; pest or weed control at 250 g/ha ([1]; post-emergence, 360 h, POST-emergence, rate 250 g/ha, visual score 15 DAA (100%=total damage, 0%=no damage), read-out: Post-emergence herbicidal activity (percentage phytotoxicity) ALOMY POST): 90%; pest or weed control at 250 g/ha ([1]; pre-emergence, 480 h, PRE-emergence, rate 250 g/ha, visual score 20 DAA (100%=total damage, 0%=no damage), read-out: Pre-emergence herbicidal activity (percentage phytotoxicity) ALOMY PRE): 90%; pest or weed control at 250 g/ha (Lolium perenne (LOLPE); post-emergence, 360 h, POST-emergence, rate 250 g/ha, visual score 15 DAA (100%=total damage, 0%=no damage), read-out: Post-emergence herbicidal activity (percentage phytotoxicity) LOLPE POST): 80%; pest or weed control at 250 g/ha (Lolium perenne (LOLPE); pre-emergence, 480 h, PRE-emergence, rate 250 g/ha, visual score 20 DAA (100%=total damage, 0%=no damage), read-out: Pre-emergence herbicidal activity (percentage phytotoxicity) LOLPE PRE): 90%; pest or weed control at 250 g/ha ([2]; post-emergence, 360 h, POST-emergence, rate 250 g/ha, visual score 15 DAA (100%=total damage, 0%=no damage), read-out: Post-emergence herbicidal activity (percentage phytotoxicity) ECHCG POST): 90%; pest or weed control at 250 g/ha ([2]; pre-emergence, 480 h, PRE-emergence, rate 250 g/ha, visual score 20 DAA (100%=total damage, 0%=no damage), read-out: Pre-emergence herbicidal activity (percentage phytotoxicity) ECHCG PRE): 90%
Cc1cc(-c2ncc(Cl)cc2F)cc(C)c1C1C(=O)CC(CC(=O)NC2CC2)C1=O (stereo not drawn) [Compound A45]	100	100	100	100	100	100	100	100	–	–	–	–	–	–	–	–	–
Cc1cc(-c2ccc(Cl)cn2)cc(C)c1C1C(=O)CC(CC(=O)NC(C)C)C1=O (stereo not drawn) [Compound B360]	–	–	–	–	–	–	–	–	100	100	100	100	100	100	100	100	–
Cc1cc(C)c(C2C(=O)CC(CC(=O)NCc3ncc(C(F)(F)F)cc3Cl)C2=O)c(C)c1 (stereo not drawn) [Compound A109]	80	50	90	90	80	90	80	80	–	–	–	–	–	–	–	–	–

— US10206394B2, “Herbicidal compounds” (Syngenta Participations AG, priority 2014, dated 2019)
